By Kd is commonly meant the constant that tells how readily two partners part at equilibrium. Lower therefore signals tighter binding.

SMILES strings stand for the structures.

The test system of assay [1] is Tel7 (DNA, G4) TTAGGGT. Nature of the assay: fluorescence titration. The conditions noted are these: K+ (100 mM KCl, 10 mM potassium phosphate; quadruplex annealing buffer), pH 7.0, 25 °C; for Kd1: site 1 of 2.
For assay [2], the system named is Tel22 (DNA, G4) AGGGTTAGGGTTAGGGTTAGGG
As to the kind of experiment: fluorescence titration. Particulars: K+ (100 mM KCl, 10 mM potassium phosphate; quadruplex annealing buffer); pH 7.0, 25 °C; site 1 of 2.

Assay [3] concerns Tel7 (DNA, G4) TTAGGGT. As to the kind of experiment: NMR titration, NOESY and restrained MD structure. The conditions noted are these: K+; 298 K, H2O/D2O 9:1; stacks at T1pT2 and G6pT7; imino signals persist to 343 K versus lost at 323 K.
Assay [4] concerns c-myc (DNA, G4) TGAGGGTGGTGAGGGTGGGGAAGG
Nature of the assay: fluorescence titration. Particulars: K+ (100 mM KCl, 10 mM potassium phosphate; quadruplex annealing buffer); pH 7.0, 25 °C; site 1 of 2.

For assay [5], the system named is c-kit21up (DNA, G4) CGGGCGGGCGCGAGGGAGGGG
As to the kind of experiment: fluorescence titration. The conditions noted are these: K+ (100 mM KCl, 10 mM potassium phosphate; quadruplex annealing buffer); pH 7.0, 25 °C; single site.

`C[C@@H]1O[C@@H](OC[C@H]2O[C@@H](Oc3c(-c4ccc(O)c(O)c4)oc4cc(O)cc(O)c4c3=O)[C@H](O)[C@@H](O)[C@@H]2O)[C@H](O)[C@H](O)[C@H]1O` came in with a Kd1 in assay [1] of 38 nM.

For `O=c1c(-c2ccc(O)cc2)coc2cc(O)cc(O)c12`, in assay [1] (same value under Kd1 and Kd2 (single binding pattern)), the Kd worked out at 26.5 µM. In other words, the double-digit micromolar range.

As for `O=c1c(O)c(-c2ccc(O)c(O)c2)oc2cc(O)cc(O)c12`, the Kd1 in assay [2] came to 30.2 nM; in assay [4] it was 138 nM; in assay [1] it was 4.9 nM; in assay [5], 1.13 µM. Besides, in assay [3], the binding result is “yes”.

Turning to `O=c1cc(-c2ccc(O)c(O)c2)oc2cc(O)cc(O)c12`, the Kd1 in assay [1] worked out at 23 nM.

Source of the values: article PMC4667226 (2015).
